System: MV-4-11 cells
Test: Gene expression microarray analysis (Affymetrix PrimeView) and GSEA
Format: cell-based, human
Parameters: RFU PODN (11730768_x_at) / Fold change /veh PODN (11730768_x_at) / RFU LINC00158 (11744669_a_at) / Fold change /veh LINC00158 (11744669_a_at) / RFU DUSP10 (11751237_a_at) / Fold change /veh DUSP10 (11751237_a_at) / RFU ID3 (11757404_x_at) / Fold change /veh ID3 (11757404_x_at) / RFU PLEKHG5 (11737974_s_at) / Fold change /veh PLEKHG5 (11737974_s_at) / RFU LRRC4B (11730491_at) / Fold change /veh LRRC4B (11730491_at) / RFU GIMAP4 (11747438_a_at) / Fold change /veh GIMAP4 (11747438_a_at) / RFU KRT8 (11758183_x_at) / Fold change /veh KRT8 (11758183_x_at) / RFU CNN1 (11734310_a_at) / Fold change /veh CNN1 (11734310_a_at) / RFU VPS37D (11726825_at) / Fold change /veh VPS37D (11726825_at) / RFU C10orf10 (11716522_x_at) / Fold change /veh C10orf10 (11716522_x_at) / RFU KIR2DL2 /// KIR2DL4 /// KIR2DL5A /// KIR2DL5B /// KIR2DS1 /// KIR2DS2 /// KIR2DS3 /// KIR2DS4 /// KIR3DL3 /// KIR3DL3 /// KIR3DS1 (11738374_at) / Fold change /veh KIR2DL2 /// KIR2DL4 /// KIR2DL5A /// KIR2DL5B /// KIR2DS1 /// KIR2DS2 /// KIR2DS3 /// KIR2DS4 /// KIR3DL3 /// KIR3DL3 /// KIR3DS1 (11738374_at) / RFU C1QL1 (11718748_at) / Fold change /veh C1QL1 (11718748_at) / RFU TMPRSS4 (11747572_a_at) / Fold change /veh TMPRSS4 (11747572_a_at) / RFU HAMP (11756126_x_at) / Fold change /veh HAMP (11756126_x_at) / RFU RNFT2 (11725882_a_at) / Fold change /veh RNFT2 (11725882_a_at) / RFU NR4A2 (11747474_a_at) / Fold change /veh NR4A2 (11747474_a_at) / RFU ABCC12 (11746883_a_at) / Fold change /veh ABCC12 (11746883_a_at) / RFU TMEM136 (11760407_x_at) / Fold change /veh TMEM136 (11760407_x_at) / RFU CLDN22 /// WWC2 (11732394_at) / Fold change /veh CLDN22 /// WWC2 (11732394_at) / RFU HLA-DPB1 (11760878_x_at) / Fold change /veh HLA-DPB1 (11760878_x_at) / RFU SPINT1 (11716480_a_at) / Fold change /veh SPINT1 (11716480_a_at) / RFU GAP43 (11754022_s_at) / Fold change /veh GAP43 (11754022_s_at) / RFU A4GNT (11735810_at) / Fold change /veh A4GNT (11735810_at) / RFU PRB3 (11715151_x_at) / Fold change /veh PRB3 (11715151_x_at) / RFU TUBB4B (11761932_at) / Fold change /veh TUBB4B (11761932_at) / RFU CAPN14 (11732068_a_at) / Fold change /veh CAPN14 (11732068_a_at) / RFU TMCC2 (11721928_a_at) / Fold change /veh TMCC2 (11721928_a_at) / RFU IRGQ (11745062_a_at) / Fold change /veh IRGQ (11745062_a_at) / RFU FAM174B (11720279_a_at) / Fold change /veh FAM174B (11720279_a_at) / RFU TMPRSS4 (11748680_a_at) / Fold change /veh TMPRSS4 (11748680_a_at) / RFU FAM212B (11763350_a_at) / Fold change /veh FAM212B (11763350_a_at) / RFU PLEKHG5 (11743358_a_at) / Fold change /veh PLEKHG5 (11743358_a_at) / RFU ZSCAN30 (11745921_a_at) / Fold change /veh ZSCAN30 (11745921_a_at) / RFU CMKLR1 (11741424_a_at) / Fold change /veh CMKLR1 (11741424_a_at) / RFU LOC101060620 /// MAPK8IP1 (11723275_at) / Fold change /veh LOC101060620 /// MAPK8IP1 (11723275_at) / RFU SPTSSB (11747773_x_at) / Fold change /veh SPTSSB (11747773_x_at) / RFU PRSS12 (11739890_at) / Fold change /veh PRSS12 (11739890_at) / RFU BIN1 (11741810_x_at) / Fold change /veh BIN1 (11741810_x_at) / RFU WNT11 (11732464_a_at) / Fold change /veh WNT11 (11732464_a_at) / RFU C10orf10 (11716521_a_at) / Fold change /veh C10orf10 (11716521_a_at) / RFU C5orf56 (11738089_at) / Fold change /veh C5orf56 (11738089_at) / RFU CYB561 (11721691_x_at) / Fold change /veh CYB561 (11721691_x_at) / RFU ANKRD19P (11752326_a_at) / Fold change /veh ANKRD19P (11752326_a_at) / RFU OR2T12 /// OR2T33 /// OR2T8 (11738714_s_at) / Fold change /veh OR2T12 /// OR2T33 /// OR2T8 (11738714_s_at) / RFU VCAN (11748164_a_at) / Fold change /veh VCAN (11748164_a_at) / RFU JSRP1 (11732532_at) / Fold change /veh JSRP1 (11732532_at) / RFU KRTAP10-11 (11738290_x_at) / Fold change /veh KRTAP10-11 (11738290_x_at) / RFU MYO3A (11730013_a_at) / Fold change /veh MYO3A (11730013_a_at) / RFU EBF3 (11725865_a_at) / Fold change /veh EBF3 (11725865_a_at) / RFU CAMK2N1 (11719241_x_at) / Fold change /veh CAMK2N1 (11719241_x_at) / RFU C5orf56 (11738088_a_at) / Fold change /veh C5orf56 (11738088_a_at) / RFU OLFML3 (11715873_a_at) / Fold change /veh OLFML3 (11715873_a_at) / RFU LOC100653217 /// NTM (11731650_a_at) / Fold change /veh LOC100653217 /// NTM (11731650_a_at) / RFU MAPK11 (11762145_a_at) / Fold change /veh MAPK11 (11762145_a_at) / RFU FIZ1 (11724087_x_at) / Fold change /veh FIZ1 (11724087_x_at) / RFU OASL (11726364_x_at) / Fold change /veh OASL (11726364_x_at) / RFU SOX15 (11748057_x_at) / Fold change /veh SOX15 (11748057_x_at) / RFU CD79A (11719716_a_at) / Fold change /veh CD79A (11719716_a_at) / RFU HIST1H1D (11736915_at) / Fold change /veh HIST1H1D (11736915_at) / RFU CASKIN2 (11723855_a_at) / Fold change /veh CASKIN2 (11723855_a_at) / RFU LOC730098 (11760151_x_at) / Fold change /veh LOC730098 (11760151_x_at) / RFU OR4N2 (11742367_at) / Fold change /veh OR4N2 (11742367_at) / RFU PRRT2 (11749266_a_at) / Fold change /veh PRRT2 (11749266_a_at) / RFU SNX32 (11753110_a_at) / Fold change /veh SNX32 (11753110_a_at) / RFU CDHR5 (11726645_a_at) / Fold change /veh CDHR5 (11726645_a_at) / RFU RCAN1 (11760418_a_at) / Fold change /veh RCAN1 (11760418_a_at) / RFU FAM167A (11723789_a_at) / Fold change /veh FAM167A (11723789_a_at) / RFU FAM26E (11764081_at) / Fold change /veh FAM26E (11764081_at) / RFU ISYNA1 (11749810_s_at) / Fold change /veh ISYNA1 (11749810_s_at) / RFU ACY1 (11761880_at) / Fold change /veh ACY1 (11761880_at) / RFU 11764098_at / Fold change /veh 11764098_at / RFU SAMD14 (11745864_x_at) / Fold change /veh SAMD14 (11745864_x_at) / RFU NPB (11741838_a_at) / Fold change /veh NPB (11741838_a_at) / RFU TMPRSS6 (11731388_a_at) / Fold change /veh TMPRSS6 (11731388_a_at) / RFU KRTAP10-2 (11738614_at) / Fold change /veh KRTAP10-2 (11738614_at) / RFU ARHGAP8 /// PRR5-ARHGAP8 (11727945_x_at) / Fold change /veh ARHGAP8 /// PRR5-ARHGAP8 (11727945_x_at) / RFU KRTAP5-7 /// NADSYN1 (11734609_at) / Fold change /veh KRTAP5-7 /// NADSYN1 (11734609_at) / RFU RASL12 (11751679_a_at) / Fold change /veh RASL12 (11751679_a_at) / RFU CDKN2B (11736163_a_at) / Fold change /veh CDKN2B (11736163_a_at) / RFU PRF1 (11729649_at) / Fold change /veh PRF1 (11729649_at) / RFU, ZNF638 /// ZNF638-IT1 / Fold change vs veh, ZNF638 /// ZNF638-IT1 / RFU, PANK3 / Fold change vs veh, PANK3 / RFU, SH3YL1 / Fold change vs veh, SH3YL1 / RFU, ZEB2 / Fold change vs veh, ZEB2 / RFU, NRIP1 / Fold change vs veh, NRIP1 / RFU, PTTG1IP / Fold change vs veh, PTTG1IP / RFU, CAPN2 / Fold change vs veh, CAPN2 / RFU, MED14 / Fold change vs veh, MED14 / RFU, SNORA58 / Fold change vs veh, SNORA58 / RFU, C1orf63 / Fold change vs veh, C1orf63 / RFU, LRRFIP1 / Fold change vs veh, LRRFIP1 / RFU, NDUFAF7 / Fold change vs veh, NDUFAF7 / RFU, SLC12A2 / Fold change vs veh, SLC12A2 / RFU, IBTK / Fold change vs veh, IBTK / RFU, ESF1 / Fold change vs veh, ESF1 / Fold change vs veh, TMEM50B / RFU, TAOK1 / Fold change vs veh, TAOK1 / RFU, ACBD3 / Fold change vs veh, ACBD3 / RFU, TMA16 / Fold change vs veh, TMA16 / RFU, RWDD3 / Fold change vs veh, RWDD3 / RFU, BCAT1 / Fold change vs veh, BCAT1 / RFU, EDEM3 / Fold change vs veh, EDEM3 / RFU, TMEM33 / Fold change vs veh, TMEM33 / RFU, WDR75 / Fold change vs veh, WDR75 / RFU, AHCTF1 / Fold change vs veh, AHCTF1 / RFU, TFRC / Fold change vs veh, TFRC / RFU, ZDHHC17 / Fold change vs veh, ZDHHC17 / RFU, NOM1 / Fold change vs veh, NOM1 / RFU, ARL8B / Fold change vs veh, ARL8B / RFU, ZBTB11 / Fold change vs veh, ZBTB11 / RFU, TAMM41 / Fold change vs veh, TAMM41 / RFU, KIAA1704 /// LOC100996395 / Fold change vs veh, KIAA1704 /// LOC100996395 / RFU, ING1 / Fold change vs veh, ING1 / RFU, TRMT61B / Fold change vs veh, TRMT61B / RFU, FUBP3 / Fold change vs veh, FUBP3 / RFU, TP53 / Fold change vs veh, TP53 / RFU, TNKS2 / Fold change vs veh, TNKS2 / RFU, ZFP14 / Fold change vs veh, ZFP14 / RFU, ACTR2 / Fold change vs veh, ACTR2 / RFU, PPP3R1 / Fold change vs veh, PPP3R1 / RFU, PIK3R1 / Fold change vs veh, PIK3R1 / RFU, HNRNPA1 / Fold change vs veh, HNRNPA1 / RFU, RNF170 / Fold change vs veh, RNF170 / RFU, ZNF28 / Fold change vs veh, ZNF28 / RFU, RNGTT / Fold change vs veh, RNGTT / RFU, OGT / Fold change vs veh, OGT / RFU, BRD1 / Fold change vs veh, BRD1 / RFU, MARS / Fold change vs veh, MARS / RFU, ZNF655 / Fold change vs veh, ZNF655 / RFU, FAHD1 / Fold change vs veh, FAHD1 / RFU, BDP1 / Fold change vs veh, BDP1 / RFU, LRRCC1 / Fold change vs veh, LRRCC1 / RFU, ARID1A / Fold change vs veh, ARID1A / RFU, ZNF146 / Fold change vs veh, ZNF146 / RFU, ZNF330 / Fold change vs veh, ZNF330 / RFU, GPN3 / Fold change vs veh, GPN3 / RFU, C9orf123 / Fold change vs veh, C9orf123 / RFU, N4BP2L2 / Fold change vs veh, N4BP2L2 / RFU, ARFIP1 / Fold change vs veh, ARFIP1 / RFU, FAM179B / Fold change vs veh, FAM179B / RFU, BCL10 / Fold change vs veh, BCL10 / RFU, UHRF1BP1L / Fold change vs veh, UHRF1BP1L / RFU, BET1 / Fold change vs veh, BET1 / RFU, CNOT2 / Fold change vs veh, CNOT2 / RFU, ZNF268 / Fold change vs veh, ZNF268 / Fold change vs veh, ZNF507 / RFU, DGCR2 / Fold change vs veh, DGCR2 / RFU, WDSUB1 / Fold change vs veh, WDSUB1 / Fold change vs veh, HSP90B1 /// MIR3652 / RFU, ADSS / Fold change vs veh, ADSS / RFU, GK / Fold change vs veh, GK / RFU, ZNF148 / Fold change vs veh, ZNF148 / RFU, TAF9 / Fold change vs veh, TAF9 / RFU, SLC1A5 / Fold change vs veh, SLC1A5 / RFU, SLMO2 / Fold change vs veh, SLMO2 / RFU, ABCC4 / Fold change vs veh, ABCC4 / RFU, LOC101060439 /// RAP1B / Fold change vs veh, LOC101060439 /// RAP1B / RFU, RFX7 / Fold change vs veh, RFX7 / RFU, GTPBP10 / Fold change vs veh, GTPBP10 / RFU, CNEP1R1 / Fold change vs veh, CNEP1R1 / RFU, BIVM-ERCC5 /// ERCC5 / Fold change vs veh, BIVM-ERCC5 /// ERCC5 / RFU, ILF3 / Fold change vs veh, ILF3 / RFU 11762660_at / Fold change /veh 11762660_at / RFU VCAN (11757783_s_at) / Fold change /veh VCAN (11757783_s_at) / RFU DDX43 (11728927_at) / Fold change /veh DDX43 (11728927_at) / RFU KRT8 (11758188_x_at) / Fold change /veh KRT8 (11758188_x_at) / RFU NKD1 (11759106_at) / Fold change /veh NKD1 (11759106_at) / RFU SRD5A1 (11742802_a_at) / Fold change /veh SRD5A1 (11742802_a_at) / RFU TPSAB1 /// TPSB2 (11721975_s_at) / Fold change /veh TPSAB1 /// TPSB2 (11721975_s_at) / RFU GSTM3 (11746129_a_at) / Fold change /veh GSTM3 (11746129_a_at) / RFU IL23R (11737362_x_at) / Fold change /veh IL23R (11737362_x_at) / RFU TMEM51 (11727254_a_at) / Fold change /veh TMEM51 (11727254_a_at) / RFU PIWIL2 (11732686_x_at) / Fold change /veh PIWIL2 (11732686_x_at) / RFU ORM1 (11744905_x_at) / Fold change /veh ORM1 (11744905_x_at) / RFU CCDC152 (11743942_at) / Fold change /veh CCDC152 (11743942_at) / RFU ECM1 (11717891_a_at) / Fold change /veh ECM1 (11717891_a_at) / RFU IL23R (11748794_a_at) / Fold change /veh IL23R (11748794_a_at) / RFU TNFAIP8L3 (11732012_x_at) / Fold change /veh TNFAIP8L3 (11732012_x_at) / RFU MBOAT4 (11741988_at) / Fold change /veh MBOAT4 (11741988_at) / RFU 11764193_at / Fold change /veh 11764193_at / RFU TMEM53 (11763286_at) / Fold change /veh TMEM53 (11763286_at) / RFU MAGEB2 (11727129_at) / Fold change /veh MAGEB2 (11727129_at) / RFU TMEM200A (11744735_a_at) / Fold change /veh TMEM200A (11744735_a_at) / RFU CCDC152 (11751479_a_at) / Fold change /veh CCDC152 (11751479_a_at) / RFU FAM211A (11726209_a_at) / Fold change /veh FAM211A (11726209_a_at) / RFU RGS16 (11746705_a_at) / Fold change /veh RGS16 (11746705_a_at) / RFU VCAN (11755009_s_at) / Fold change /veh VCAN (11755009_s_at) / RFU RHOB (11743442_s_at) / Fold change /veh RHOB (11743442_s_at) / RFU RGS16 (11720943_a_at) / Fold change /veh RGS16 (11720943_a_at) / RFU RGS16 (11720944_at) / Fold change /veh RGS16 (11720944_at) / RFU, VPS4B / Fold change vs veh, VPS4B / RFU, CREB1 / Fold change vs veh, CREB1 / RFU, DNAJC13 / Fold change vs veh, DNAJC13 / RFU, GNAQ / Fold change vs veh, GNAQ / RFU, CDK5R1 / Fold change vs veh, CDK5R1 / RFU, ZRANB3 / Fold change vs veh, ZRANB3 / RFU, CUL4A / Fold change vs veh, CUL4A / RFU, CCNY / Fold change vs veh, CCNY / RFU, UFL1 / Fold change vs veh, UFL1 / RFU, COG3 / Fold change vs veh, COG3 / RFU, DIAPH2 / Fold change vs veh, DIAPH2 / RFU, SKA2 / Fold change vs veh, SKA2 / RFU, AFF3 / Fold change vs veh, AFF3 / RFU, LMF1 / Fold change vs veh, LMF1 / RFU, IPO11 / Fold change vs veh, IPO11 / RFU, DFFB / Fold change vs veh, DFFB / RFU, FOXP1 / Fold change vs veh, FOXP1 / RFU, CARD8 / Fold change vs veh, CARD8 / RFU, STRN3 / Fold change vs veh, STRN3 / RFU, ADK / Fold change vs veh, ADK / RFU, RASSF2 / Fold change vs veh, RASSF2 / RFU, WIPF1 / Fold change vs veh, WIPF1 / RFU, LARP1B / Fold change vs veh, LARP1B / RFU, RASA1 / Fold change vs veh, RASA1 / RFU, RB1 / Fold change vs veh, RB1 / RFU, PPFIA1 / Fold change vs veh, PPFIA1 / RFU, MAT2A / Fold change vs veh, MAT2A / RFU, CCT5 / Fold change vs veh, CCT5 / RFU, WDR92 / Fold change vs veh, WDR92 / RFU, CUX1 / Fold change vs veh, CUX1 / RFU, TTC7A / Fold change vs veh, TTC7A / RFU, TMEM135 / Fold change vs veh, TMEM135 / RFU, DEPTOR / Fold change vs veh, DEPTOR / RFU, CPM / Fold change vs veh, CPM / RFU, DNAJB6 / Fold change vs veh, DNAJB6 / RFU, CACNA2D3 / Fold change vs veh, CACNA2D3 / RFU, DTX4 / Fold change vs veh, DTX4 / RFU, TFCP2 / Fold change vs veh, TFCP2 / RFU, GMCL1 /// GMCL1P1 / Fold change vs veh, GMCL1 /// GMCL1P1 / RFU, AEBP2 / Fold change vs veh, AEBP2 / RFU, SNHG1 /// SNORD22 /// SNORD25 /// SNORD26 /// SNORD27 /// SNORD28 /// SNORD29 /// SNORD31 / Fold change vs veh, SNHG1 /// SNORD22 /// SNORD25 /// SNORD26 /// SNORD27 /// SNORD28 /// SNORD29 /// SNORD31 / Fold change (Aza/veh), C12orf56 (ProbeSet 11735607_a_at) / Fold change (ACY-1035/veh), C12orf56 (ProbeSet 11735607_a_at) / Fold change (Aza/veh), FGFR1OP (ProbeSet 11751329_s_at) / Fold change (ACY-1035/veh), FGFR1OP (ProbeSet 11751329_s_at) / Fold change (Aza/veh), VPS36 (ProbeSet 11739960_a_at) / Fold change (ACY-1035/veh), VPS36 (ProbeSet 11739960_a_at) / RFU SYPL1 (11715823_x_at) / Fold change /veh SYPL1 (11715823_x_at) / RFU IGFBP7 (11715501_s_at) / Fold change /veh IGFBP7 (11715501_s_at) / RFU REEP3 (11722064_at) / Fold change /veh REEP3 (11722064_at) / RFU IGLL1 (11728026_x_at) / Fold change /veh IGLL1 (11728026_x_at): dose or concentration left out as unconfirmed
Settings: ProbeSet 11722302_a_at; LIST B

Nc1ncn([C@@H]2O[C@H](CO)[C@@H](O)[C@H]2O)c(=O)n1 [azacitidine]
Fold change vs veh, LRRFIP1: 0.89

Source: PMC5218480 (PLoS ONE, 2017)
